# From patent US20260042764A1, “COMPOSITIONS AND METHODS FOR INHIBITION OF KRAS” (TheRas, Inc., priority 2022, published 2026)
# Assays:
# [1] = target: T1, Avi-KRAS G12R (1-169) GppNHp/RAF1 RBD-3xFLAG (52-151) (Homo sapiens, UniProt P01116, G12R); experiment: Raf1-KRAS G12R-GppNHP disruption HTRF assay (Biological Example 1); type: binding
# T1 construct: Avi-KRAS G12R (1-169)
# In short: (§1)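 Protein mix, 1 h RT, 700 rpm; reagent mix, 1 h RT, 700 rpm; HTRF read. Buffer Tris pH 7.5/NaCl/MgCl2/BSA/Tween, 10% DMSO. Output % activity, DMSO = 100%.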
# SW620 cells (KRAS G12V) = experiment: Cell-based pERK HTRF assay in SW620 cell (Biological Example 4); conditions: pERK HTRF
# In short: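 SW620 (KRAS G12V) cells seeded at 3×10^4/well in RPMI, 10% FBS, then treated next day for 4 h with a 9-point half-log series from 1 μM top (0.25% DMSO). Lysates analyzed for pERK by HTRF (Eu cryptate/d2 antibodies, 4–24 h at room temperature), excitation 320 nm, emission 615 nm.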
# [2] = target: T2, Avi-KRAS G12D (1-169) GppNHp/RAF1 RBD-3xFLAG (52-151) (Homo sapiens, UniProt P01116, G12D); experiment: Raf1-KRAS G12D-GppNHP disruption HTRF assay (Biological Example 1); type: binding
# T2 construct: Avi-KRAS G12D (1-169)
# T2 sequence (P01116 1-169 isoform P01116-2 G12D): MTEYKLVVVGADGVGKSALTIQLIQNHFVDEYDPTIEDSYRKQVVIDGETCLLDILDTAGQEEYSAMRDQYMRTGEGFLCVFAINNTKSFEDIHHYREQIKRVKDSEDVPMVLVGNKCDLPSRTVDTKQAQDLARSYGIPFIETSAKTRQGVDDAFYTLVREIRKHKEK
# In short: as §1
# [3] = target: T3, Avi-KRAS G12V (1-169) GppNHp/RAF1 RBD-3xFLAG (52-151) (Homo sapiens, UniProt P01116, G12V); experiment: Raf1-KRAS G12V-GppNHP disruption HTRF assay (Biological Example 1); type: binding
# T3 construct: Avi-KRAS G12V (1-169)
# T3 sequence (P01116 1-169 isoform P01116-2 G12V): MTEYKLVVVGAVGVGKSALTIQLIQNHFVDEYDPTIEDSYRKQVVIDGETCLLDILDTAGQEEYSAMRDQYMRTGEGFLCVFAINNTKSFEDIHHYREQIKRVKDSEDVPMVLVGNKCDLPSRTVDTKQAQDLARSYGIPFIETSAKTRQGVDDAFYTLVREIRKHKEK
# In short: as §1
# [4] = target: T4, Avi-KRAS WT (1-169) GppNHp/RAF1 RBD-3xFLAG (52-151) (Homo sapiens, UniProt P01116); experiment: Raf1-KRAS WT-GppNHP disruption HTRF assay (Biological Example 1); type: binding
# T4 construct: Avi-KRAS WT (1-169)
# T4 sequence (P01116 1-169 isoform P01116-2): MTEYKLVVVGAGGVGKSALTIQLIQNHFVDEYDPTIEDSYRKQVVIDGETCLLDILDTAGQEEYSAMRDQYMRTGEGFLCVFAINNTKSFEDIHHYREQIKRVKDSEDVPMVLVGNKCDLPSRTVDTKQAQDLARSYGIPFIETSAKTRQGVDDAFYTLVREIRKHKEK
# In short: as §1
# GP2d cells (KRAS G12D) = experiment: Cell-based pERK HTRF assay in GP2d cell (Biological Example 2); conditions: GP2d (KRAS G12D) cells, pERK HTRF
# In short: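 60 min compound, 0.25% DMSO, 9-pt half-log curve from 1 μM or 100 nM; DMEM/10% FBS.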
# [5] = KRAS G12R, GppNHp-loaded, Table 11
# [6] = KRAS G12D, GppNHp-loaded, Table 11
# [7] = KRAS G12V, GppNHp-loaded, Table 11
# [8] = KRAS WT, GppNHp-loaded, Table 11
# [9] = Homo sapiens, SW-620, SW620 (KRAS G12V) cells
# [10] = KRAS G12R, GppNHp-loaded, class symbols
# [11] = Homo sapiens, SW-620, SW620 (KRAS G12V) cells, class symbols
# [12] = KRAS G12D, GppNHp-loaded, class symbols
# [13] = KRAS G12V, GppNHp-loaded, class symbols
# [14] = KRAS WT, GppNHp-loaded, class symbols
# T1 sequence (P01116 1-169 isoform P01116-2 G12R): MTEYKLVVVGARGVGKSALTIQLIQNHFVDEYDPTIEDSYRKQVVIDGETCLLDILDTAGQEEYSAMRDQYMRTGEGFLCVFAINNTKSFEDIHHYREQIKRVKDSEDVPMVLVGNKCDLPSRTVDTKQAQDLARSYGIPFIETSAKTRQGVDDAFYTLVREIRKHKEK
"IC50 [1, 5]","IC50 [2, 6]","IC50 [3, 7]","IC50 [4, 8]",IC50 (SW620 cells (KRAS G12V); [9]),IC50 (GP2d cells (KRAS G12D); GP2d),IC50 ([1]; KRAS G12R-GppNHp/RAF1 RBD HTRF),IC50 ([2]; KRAS G12D-GppNHp/RAF1 RBD HTRF),IC50 ([3]; KRAS G12V-GppNHp/RAF1 RBD HTRF),IC50 ([4]; KRAS WT-GppNHp/RAF1 RBD HTRF),Compound,also measured
> 10000 nM,> 10000 nM,> 10000 nM,> 10000 nM,–,–,–,–,–,–,"CC(=O)N1CC[C@H](N(C)c2nc(OC[C@@]34CCCN3C[C@H](F)C4)nc3c(F)c(-c4ccc(F)c5sc(N)c(C#N)c45)c(C(F)(F)F)cc23)[C@@H]1C (single isomer, unassigned) [Compound 194]",IC50 (SW620 cells (KRAS G12V); SW620 (KRAS G12V) cells): > 1000 nM; IC50 (GP2d cells (KRAS G12D)): > 1000 nM
100 to 1000 nM,100 to 1000 nM,100 to 1000 nM,100 to 1000 nM,< 100 nM,< 100 nM,–,–,–,–,CN(c1nc(OC[C@@]23CCCN2C[C@H](F)C3)nc2c(F)c(-c3ccc(F)c4sc(N)c(C#N)c34)c(C(F)(F)F)cc12)[C@@H]1CCCOC1 [Compound 274],–
–,–,–,–,–,–,–,–,–,–,"CCN(c1nc(OC[C@@]23CCCN2C[C@H](F)C3)nc2c(F)c(-c3ccc(F)c4sc(N)c(C#N)c34)c(C(F)(F)F)cc12)[C@H]1CCN(C(=O)C=C(C)C)C1 (atropisomer, axis not shown) [Compound 675]","IC50 [1, 10]: < 100 nM; IC50 (SW620 cells (KRAS G12V); [11]): < 100 nM; IC50 [2, 12]: < 100 nM; IC50 [3, 13]: < 100 nM; IC50 [4, 14]: < 100 nM; IC50 (GP2d cells (KRAS G12D); GP2d, class symbols): < 100 nM"
–,–,–,–,–,–,–,–,–,–,"CCC(=O)N1C[C@@H](N(CC)c2nc(OC[C@@]34CCCN3C[C@H](F)C4)nc3c(F)c(-c4ccc(F)c5sc(N)c(C#N)c45)c(C(F)(F)F)cc23)C[C@H]1COC (atropisomer, axis not shown) [Compound 649]","IC50 [1, 10]: 100 to 1000 nM; IC50 (SW620 cells (KRAS G12V); [11]): < 100 nM; IC50 [2, 12]: 100 to 1000 nM; IC50 [3, 13]: 100 to 1000 nM; IC50 [4, 14]: 100 to 1000 nM; IC50 (GP2d cells (KRAS G12D); GP2d, class symbols): < 100 nM"
–,–,–,–,< 100 nM,< 100 nM,100 to 1000 nM,100 to 1000 nM,100 to 1000 nM,100 to 1000 nM,CCC(=O)N1CC[C@@H](N(C)c2nc(OC[C@@]34CCCN3C[C@H](F)C4)nc3c(F)c(-c4ccc(F)c5sc(N)c(C#N)c45)c(Cl)cc23)[C@H]1C [Compound 399],–
–,–,–,–,< 100 nM,< 100 nM,100 to 1000 nM,100 to 1000 nM,100 to 1000 nM,100 to 1000 nM,CCN(c1nc(OC[C@@]23CCCN2C[C@H](F)C3)nc2c(F)c(-c3ccc(F)c4sc(N)c(C#N)c34)c(C(F)(F)F)cc12)[C@@H]1CCS(=O)(=O)C1 [Compound 477],–
–,–,–,–,100 to 1000 nM,< 100 nM,100 to 1000 nM,100 to 1000 nM,100 to 1000 nM,100 to 1000 nM,CC(=O)N1CCC(N(C)c2nc(OC[C@@]34CCCN3C[C@H](F)C4)nc3c(F)c(-c4ccc(F)c5sc(N)c(C#N)c45)c(C(F)(F)F)cc23)CC1 [Compound 296],–
–,–,–,–,< 100 nM,< 100 nM,< 100 nM,< 100 nM,100 to 1000 nM,< 100 nM,"CCN(c1nc(OC[C@@]23CCCN2C[C@H](F)C3)nc2c(F)c(-c3ccc(F)c4sc(N)c(C#N)c34)c(C(F)(F)F)cc12)[C@H]1CCN(C(=O)C(C)(C)C)C1 (atropisomer, axis not shown) [Compound 562]",–
100 to 1000 nM,100 to 1000 nM,100 to 1000 nM,100 to 1000 nM,< 100 nM,< 100 nM,–,–,–,–,CC(=O)N1C[C@@H](F)[C@@H](N(C)c2nc(OC[C@@]34CCCN3C[C@H](F)C4)nc3c(F)c(-c4ccc(F)c5sc(N)c(C#N)c45)c(C(F)(F)F)cc23)C1 [Compound 237],–
1000 to 10000 nM,1000 to 10000 nM,1000 to 10000 nM,1000 to 10000 nM,> 1000 nM,100 to 1000 nM,–,–,–,–,C[C@H]1[C@@H](N(C)c2nc(OC[C@@]34CCCN3C[C@H](F)C4)nc3c(F)c(-c4ccc(F)c5sc(N)c(C#N)c45)c(C(F)(F)F)cc23)CCN1C(=O)CO [Compound 240],–
–,–,–,–,< 100 nM,< 100 nM,100 to 1000 nM,100 to 1000 nM,1000 to 10000 nM,100 to 1000 nM,CCN(c1nc(OC[C@@]23CCCN2C[C@H](F)C3)nc2c(F)c(-c3ccc(F)c4sc(N)c(C#N)c34)c(C(F)(F)F)cc12)[C@@H]1CCN(C(=O)C2CC2)[C@H]1C [Compound 415],–
–,–,–,–,–,–,–,–,–,–,"N#Cc1c(N)sc2c(F)ccc(-c3c(C(F)(F)F)cc4c(N(C5CC5)[C@H]5CCN(C(=O)N6CC(F)C6)C5)nc(OC[C@@]56CCCN5C[C@H](F)C6)nc4c3F)c12 (atropisomer, axis not shown) [Compound 813]","IC50 [1, 10]: 100 to 1000 nM; IC50 (SW620 cells (KRAS G12V); [11]): < 100 nM; IC50 [2, 12]: < 100 nM; IC50 [3, 13]: 100 to 1000 nM; IC50 [4, 14]: 100 to 1000 nM; IC50 (GP2d cells (KRAS G12D); GP2d, class symbols): < 100 nM"
–,–,–,–,–,–,–,–,–,–,"CCN(c1nc(OC[C@@]23CCCN2C[C@H](F)C3)nc2c(F)c(-c3ccc(F)c4sc(N)c(C#N)c34)c(C(F)(F)F)cc12)[C@H]1C[C@H]2CN(C(C)C)C(=O)N2C1 (atropisomer, axis not shown) [Compound 784]","IC50 [1, 10]: < 100 nM; IC50 (SW620 cells (KRAS G12V); [11]): < 100 nM; IC50 [2, 12]: < 100 nM; IC50 [3, 13]: 100 to 1000 nM; IC50 [4, 14]: < 100 nM; IC50 (GP2d cells (KRAS G12D); GP2d, class symbols): < 100 nM"
–,–,–,–,–,–,–,–,–,–,"CCN(c1nc(OC[C@@]23CCCN2C[C@H](F)C3)nc2c(F)c(-c3ccc(F)c4sc(N)c(C#N)c34)c(C(F)(F)F)cc12)[C@H]1CCN(C(=O)C2CCOCC2)C1 (atropisomer, axis not shown) [Compound 578]","IC50 [1, 10]: < 100 nM; IC50 (SW620 cells (KRAS G12V); [11]): < 100 nM; IC50 [2, 12]: < 100 nM; IC50 [3, 13]: < 100 nM; IC50 [4, 14]: < 100 nM; IC50 (GP2d cells (KRAS G12D); GP2d, class symbols): < 100 nM"
100 to 1000 nM,100 to 1000 nM,100 to 1000 nM,100 to 1000 nM,100 to 1000 nM,< 100 nM,–,–,–,–,C[C@]1(O)CCN(c2nc(OC[C@@]34CCCN3C[C@H](F)C4)nc3c(F)c(-c4ccc(F)c5sc(N)c(C#N)c45)c(C(F)(F)F)cc23)C1 [Compound 242],–
–,–,–,–,< 100 nM,< 100 nM,100 to 1000 nM,100 to 1000 nM,1000 to 10000 nM,100 to 1000 nM,C[C@H]1CS(=O)(=O)CCN1c1nc(OC[C@@]23CCCN2C[C@H](F)C3)nc2c(F)c(-c3ccc(F)c4sc(N)c(C#N)c34)c(C(F)(F)F)cc12 [Compound 302],–
100 to 1000 nM,< 100 nM,100 to 1000 nM,100 to 1000 nM,< 100 nM,< 100 nM,–,–,–,–,CC(=O)N1C[C@@H](N(C)c2nc(OC[C@@]34CCCN3C[C@H](F)C4)nc3c(F)c(-c4ccc(F)c5sc(N)c(C#N)c45)c(C(F)(F)F)cc23)[C@@H](F)C1 [Compound 187],–
–,–,–,–,< 100 nM,< 100 nM,100 to 1000 nM,100 to 1000 nM,1000 to 10000 nM,100 to 1000 nM,N#Cc1c(N)sc2c(F)ccc(-c3c(C(F)(F)F)cc4c(N5CC6COC(C6)C5)nc(OC[C@@]56CCCN5C[C@H](F)C6)nc4c3F)c12 (stereo partly drawn) [Compound 292],–
–,–,–,–,–,–,–,–,–,–,CCN(c1nc(OC[C@@]23CCCN2C[C@H](F)C3)nc2c(F)c(-c3ccc(F)c4sc(N)c(C#N)c34)c(C(F)(F)F)cc12)[C@H]1CCN(C(=O)OC2CC(F)C2)C1 (stereo partly drawn) [Compound 787],"IC50 [1, 10]: < 100 nM; IC50 (SW620 cells (KRAS G12V); SW620 (KRAS G12V) cells, class symbols): < 100 nM; IC50 [2, 12]: < 100 nM; IC50 [3, 13]: < 100 nM; IC50 [4, 14]: < 100 nM; IC50 (GP2d cells (KRAS G12D); class symbols): < 100 nM"
1000 to 10000 nM,100 to 1000 nM,1000 to 10000 nM,100 to 1000 nM,< 100 nM,< 100 nM,–,–,–,–,CN1CCN(c2nc(OC[C@@]34CCCN3C[C@H](F)C4)nc3c(F)c(-c4ccc(F)c5sc(N)c(C#N)c45)c(C(F)(F)F)cc23)CC1=O [Compound 257],–
–,–,–,–,< 100 nM,< 100 nM,100 to 1000 nM,100 to 1000 nM,100 to 1000 nM,100 to 1000 nM,COC(=O)N1CC[C@@H](N(C)c2nc(OC[C@@]34CCCN3C[C@H](F)C4)nc3c(F)c(-c4ccc(F)c5sc(N)c(C#N)c45)c(C(F)(F)F)cc23)[C@H]1C [Compound 410],–
